{"source": "patent US20200129495A1", "about": "(BioPharmX, Inc., priority 2018, published 2020)", "key": {"[1]": {"test_system": "male C57BL/6J mice", "conditions": "topical 2.5 mg/cm^2 daily, 5 weeks; monitored throughout the study", "quoted_text": "The modified Draize test is an acute erythema test carried out as follows. A C57BL/6J mouse is shaved in an application area, and the application area allowed to rest for approximately 24 hours and then rinsed with non-irritating soap. A test composition is applied evenly, without significant rubbing, to a 12 cm^2 area of the mouse's skin in a volume of 2.5 mg/cm^2. The sample is allowed to sit uncovered for 24 hours. After 24 hours, the application area is washed gently with lx phosphate buffered saline (1×PBS) and non-irritating soap to facilitate observation of the application area. The application area is then scored according to the following scale: 0=no evidence of erythema; 1=minimal erythema, barely perceptible; 2=definite erythema, readily visible, minimal edema or minimal popular response; 3=erythema and papules; 4=definite edema; 5=erythema, edema, and papules; 6=vesicular eruption; 7=strong reaction spreading beyond test site.\nThe skin surface of the shaved patch was wiped clean with phosphate buffer saline (1×PBS). Mice were left to acclimate overnight. […]\nClinical signs such as behavior were monitored throughout the study. […] The patch area was assessed for signs of erythema using the modified Draize scoring system and dryness every other day throughout the study period."}, "[2]": {"experimental": "The pH of each suspension was determined using a pH meter (Orion Star A111, Thermo Scientific, Waltham, Mass.). Following, the pH of each suspension was adjusted with acid 1N HCl to the target pH. A 2 milliliter (mL) sample of the liquid portion of the mixture (supernatant) was removed from the top of each vial and spun in a micro-centrifuge (Eppendorf Minispin, Hamburg Germany) at 12,000 rpm for 2 minutes.\nA 10 microliter (μL) sample was injected into a high-performance liquid chromatography machine (HPLC) (Agilent, Santa Clara, Calif.). […] The HPLC system also used a guard column (Phenomenex, Inc.) and a mobile phase consisting of a base solvent of 70 percent (v/v) methanol (Spectrum Chemicals, Gardena, Calif.), and 30 percent (v/v) 40 mM potassium phosphate buffer, pH 4.0 (Spectrum Chemicals, Gardena, Calif.). The HPLC flow rate was 1 mL per minute with a column temperature of 40 degrees centigrade, a detection wavelength of 262 nanometers (nm), and a runtime of at least 15 minutes."}, "[3]": {"test_system": "male C57BL/6J mice", "conditions": "2% (w/w) ebastine in ethanol/propylene glycol, topical 2.5 mg/cm^2 daily", "quoted_text": "Penetration into the skin was assessed in a sample size of three male mice.\nThe skin surface of the shaved patch was wiped clean with phosphate buffer saline (1×PBS). Mice were left to acclimate overnight.\nFor five weeks, the test composition was applied daily at a dose of 2.5 mg/cm^2 using a positive displacement pipette and carefully spread in the 12 cm^2 test area using a clean metal spatula.\nAt the end of the 5-week study period, 10 hairs from each site were plucked from the upper-middle, middle, and lower-middle patch area of each of the mice. In addition, 10 hairs were plucked from outside the patch area for each of the mice in the nontreatment group. The length of each of the plucked hairs was measured with a microcaliper and the resulting values were averaged.\nIn the study (as described supra), mice were shaved while in the telogen phase. Shaving stimulated hair growth by inducing the transition from rest (telogen phase) to growth (anagen phase). The shaved patch area for each mouse was observed daily for anagen onset, i.e., the first day of the anagen phase of the hair cycle."}, "[4]": {"description": "Addition of the solvent was repeated until the test material was completely dissolved, resulting in a visually clear solution.", "remark": "listed apart in the source"}, "[5]": {"assay": "Stability of ebastine in ethanol composition at 40° C.", "format": "physicochemical", "conditions": "over the tested period (2 months)"}}, "note": "Where two headings read alike, the source gives them in different places.", "data": [{"smiles": "CC(C)(C)c1ccc(C(=O)CCCN2CCC(OC(c3ccccc3)c3ccccc3)CC2)cc1", "note": "[Ebastine, 1-[4-(1,1-dimethylethyl)phenyl]-4-[4-(diphenylmethoxy)-1-piperidinyl]-1-butanone]", "values": [{"measurement": "clinical signs: behavior", "setting": "[1]", "value": "No abnormal behavior"}, {"measurement": "solubility class in 9:1 ethanol:water", "setting": "[2]; pH range of from 2 to 6", "value": "soluble (solubility of 33.3 mg/g or greater)"}, {"measurement": "solubility class in 9:1 ethanol:water", "setting": "[2]; pH values above 6, such as 7 to 10", "value": "at least sparingly soluble (solubility of 10.0 mg/g or greater)"}, {"measurement": "Ebastine Solubility in 90:10 Ethanol:Water", "setting": "[2]; pH 2.3, room temperature", "value": "30.38 (mg/g)"}, {"measurement": "Ebastine Solubility in 90:10 Ethanol:Water", "setting": "[2]; pH 6.16, room temperature", "value": "33.35 (mg/g)"}, {"measurement": "Ebastine Solubility in 90:10 Ethanol:Water", "setting": "[2]; pH 7.76, room temperature", "value": "16.58 (mg/g)"}, {"measurement": "Ebastine Solubility in 90:10 Ethanol:Water", "setting": "[2]; pH 9.90, room temperature", "value": "15.3 (mg/g)"}, {"measurement": "solubility in ethanol and water mixture compared with ethanol alone or water alone", "setting": "[2]; pH less than about 7, such as 2.3 to 6.2", "value": "exceeded"}, {"measurement": "solubility of ebastine in water alone", "setting": "[2]; water alone, useful pH ranges", "value": "less than 2 mg/g"}, {"measurement": "Ebastine Solubility in water", "setting": "[2]; pH 3.04, room temperature", "value": "1.4 (mg/g)"}, {"measurement": "Ebastine Solubility in water", "setting": "[2]; pH 5.06, room temperature", "value": "0 (mg/g)"}, {"measurement": "Ebastine Solubility in water", "setting": "[2]; pH 6.91, room temperature", "value": "0 (mg/g)"}, {"measurement": "solubility class in water", "setting": "[2]; pH below 5.0, such as 3.0 to 5.0", "value": "slightly soluble (solubility of 1.0 to 10.0 mg/g)"}, {"measurement": "solubility class in water", "setting": "[2]; pH in the range of 5 to 7, room temperature", "value": "insoluble (solubility of less than 1.0 mg/g)"}, {"measurement": "solubility class in water", "setting": "[2]; pH values of 5 and above", "value": "insoluble (solubility of less than 1.0 mg/g)"}, {"measurement": "time to significant anagen induction (average)", "setting": "[3]; mice shaved in telogen phase", "value": 10, "unit": "days"}, {"measurement": "total average patch coverage with hair", "setting": "[3]; study end, after 5 weeks", "value": "90 % of the total patch area"}, {"measurement": "EBASTINE SOLUBILITY AT ROOM TEMP", "setting": "[4]; Benzyl Benzoate", "value": ">45.0", "unit": "mg/g"}, {"measurement": "EBASTINE SOLUBILITY AT ROOM TEMP", "setting": "[4]; Diethyl Sebacate", "value": 120.6, "unit": "mg/g"}, {"measurement": "EBASTINE SOLUBILITY AT ROOM TEMP", "setting": "[4]; Diethylene Glycol Monoethyl Ether", "value": 33.9, "unit": "mg/g"}, {"measurement": "EBASTINE SOLUBILITY AT ROOM TEMP", "setting": "[4]; Dimethyl Succinate", "value": 0.47, "unit": "mg/g"}, {"measurement": "EBASTINE SOLUBILITY AT ROOM TEMP", "setting": "[4]; Ethyl Acetate", "value": 245.2, "unit": "mg/g"}, {"measurement": "EBASTINE SOLUBILITY AT ROOM TEMP", "setting": "[4]; Methylpyrrolidone", "value": ">23.1", "unit": "mg/g"}, {"measurement": "EBASTINE SOLUBILITY AT ROOM TEMP", "setting": "[4]; Triacetin", "value": "<1.1", "unit": "mg/g"}, {"measurement": "amount of ebastine soluble in 1 gram of diethyl sebacate", "setting": "[4]; in 1 gram of diethyl sebacate", "value": "approximately 120.6 mg"}, {"measurement": "stability of ebastine in ethanol", "setting": "[5]", "value": "stable"}]}]}
